In patent publication US9556169B2, “Compounds and compositions for the treatment of parasitic diseases” (NOVARTIS AG, priority 2012, dated 2017):
Read-outs that look alike come from different tables or passages of the source.

Key:
Type in all cases: cell-based
[1] = test system: Plasmodium yoelii (17XNL) sporozoites; assay: Liver stage P. yoelii sporozoite invasion assay in HepG2-A16-CD81EGFP cells
Text: Assay for Proliferation of Parasite in Infected Liver Cells
Compounds of the invention can be assayed to measure their capacity to inhibit proliferation of parasites in liver cells. The proliferation is quantified by determine the number of infected cells by immunofluorescence.
Due to the difficulty of successfully infecting immortalized human liver cell lines with the human malaria sporozoites (liver-stage parasite), rodent malaria sporozoites from Plasmodium yoelii (17XNL) and P. berghei (ANKA) are the preferred surrogate. Sporozoites are obtained from Anopheles stephensi mosquitoes supplied by the New York University Insectary, which ships the malaria-infected mosquitoes 10-13 days following the ingestion of an infective blood meal.
A transgenic HepG2 cell line expressing the tetraspanin CD81 receptor (HepG2-A16-CD81^EGFP) is used to increase the infectivity rate of rodent-malaria sporozoites into human cells. HepG2-A16-CD81^EGFP cells are stably transformed to express a GFP-CD81 fusion protein. A continuous in vitro culture of this line was maintained at 37° C. in 4% CO2 in complete media (CM) which contains: DMEM (Invitrogen, Carlsbad, USA) supplemented with 10% FCS, 0.29 mg/ml glutamine, 100 units penicillin and 100 μg/ml streptomycin (SigmaAldrich, USA).
Liver Stage P. yoelii Sporozoite Invasion Assay
Twenty to twenty-six hours prior to sporozoite infection, 7.5×10^3 HepG2-A16-CD81^EGFP cells are seeded into 384-well plates (Aurora 384 IQ-EB black plates with clear bottoms; 50 μl of 1.5×10^5 cells/ml in CM). These plates are incubated at 37° C. with 4% CO2 overnight. Two hours prior to infection, 50 nl of compound dissolved in DMSO (0.1% final DMSO concentration per well) were transferred with a PinTool (GNF Systems) into the assay plates (10 μM final concentration). A 1:3 serial dilution of atovaquone (10 μM at the highest final concentration) and wells treated only with DMSO were used as positive and negative controls, respectively.
Freshly dissected salivary glands from infected mosquitoes were homogenized in a glass tissue grinder, filtered twice through Nylon cell strainers (40 μm pore size, BD Falcon) and counted using a hemocytometer. The assay plate with HepG2-A16-CD81^EGFP cells and compound were then infected with 8×10^3 sporozoitesper well and the plates are subjected to a centrifugal force of 650×g to pellet the sporozoites onto the liver cell monolayer. The assay plate is incubated at 37° C. for 2 hours to permit sporozoite invasion, then the media is aspirated from the media plate, and replaced with 50 μl CM (containing a 5× concentration of penicillin/streptomycin; 500 units penicillin and 0.5 mg streptomycin per ml) per well. 50 nl of compound is re-introduced by PinTool and the assay plate incubated for 48 hours at 37° C. before quantification of infected cells by immunofluorescence.
Atovaquone and uninfected wells were used as controls on each plate. Two replicate plates are tested for each assay.
After fixing the cells by addition of 12.5 μl of 20% solution of paraformaldehyde (EMS, Hatfield, USA) to each assay well (4% final formaldehyde concentration), membranes were permeabilized with 0.5% Triton-X-100 (Thermo Fisher Scientific) and EEFs were stained using a mouse polyclonal serum raised against the Plasmodium yoelii heat shock protein 70 (PyHSP70), a DyLight 649 goat anti-mouse IgG, Fc(gamma) fragment specific secondary antibody (Jackson Immuno Research, Cat#115-495-071) and the Hoechst 33342 nucleic acid dye (Invitrogen, Carlsbad, USA). Stained EEFs were then quantified using the Opera Confocal High Content Screening System (Perkin Elmer, Waltham, USA). Images were collected using a 20× objective lens (20×/0.45 NA, LWD Plan Fluor, Olympus) at a binning of 2, using a 365 nm Xeon arc lamp illumination to detect the Hoechst-labeled nuclei and 635 nm laser line to excite DyLight649-labeled parasites. The image resolution yielded was approximately 0.66 μm/pixel (˜0.43 μm 2/pixel). […]

[2] = test system: P. falciparum (NF54 or 3D7 strain); assay: P. falciparum proliferation assay in infected human blood cells (SYBR Green); settings: Plasmodium falciparum
Description: Assay for P. falciparum Proliferation in Infected Human Blood Cells
Compounds of the invention can be assayed to measure their capacity to inhibit proliferation of P. falciparum parasitemia in infected red blood cells. This parasite proliferation assay measures the increase in parasite DNA content using a DNA intercalating dye, SYBR Green® (INVITROGEN®) which has a high affinity for double stranded DNA.
NF54 or 3D7 P. falciparum strain is grown in complete culturing media until parasitemia reaches 3% to 8% with O+ human erythrocytes. […] 20 μl of screening media is dispensed into 384 well assay plates. 50 nl of compounds of the invention (in DMSO), including antimalarial controls (mefloquine, pyrimethamine and artemisinin), are then transferred into the assay plates, as well as DMSO alone to serve as a negative control for inhibition. Then 30 μl of a suspension of a NF54 or 3D7 P. falciparum infected erythrocytes in screening media is dispensed into the assay plates such that the final hematocrit is 2.5% with a final parasitemia of 0.3%. The plates are placed in a 37° C. incubator for 72 hours in a low oxygen environment containing 93% N2, 4% CO2, and 3% O2 gas mixture. 10 μl of lysis buffer (saponin, triton-X, EDTA) containing a 10× solution of SYBR Green I® in RPMI media is dispensed into the plates. The plates are lidded and kept at room temperature overnight for the lysis of the infected red blood cells. The fluorescence intensity is measured (excitation 425 nm, emission 530 nm) using the Envision™ system (Perkin Elmer). The percentage inhibition of 50%, EC50, is calculated for each compound.

[3] = test system: Plasmodium berghei line expressing luciferase (Pb-luc) sporozoites; assay: Liver stage P. berghei luciferase proliferation assay in CD81-GFP-HepG2 cells; settings: values marked * in Table 2, CD81-GFP-HepG2 cells, 48 h, luminescence, read-out: EC50 (nM), P. berghei luciferase Proliferation Assay
Description: Liver Stage P. berghei Luciferase Proliferation Assay
CD81-GFP-HepG2 cells (obtained from the lab of Dominique Mazier) were seeded into GNF custom Greiner plates (1536-well, white, TC-treated, solid bottom). A final density of 3000 cells/well was achieved by dispensing 5 ul per well of a 600,000 cells/mL resuspended in Assay Media (AM; phenol-red free DMEM, 2% FBS, 5×PSG) via a MicroFlo (Biotek; 5 ul dispense cassette). The seeded assay plates were incubated overnight at 37° C. in an incubator with 5% CO2. The following day, a 10 nL volume of compound was transferred acoustically (ECHO 525, Labcyte Inc.) to each well in the assay plate. Sporozoite forms of a Plasmodium berghei line expressing luciferase (Pb-luc) were dissected and purified from infected Anopheles stephensi mosquitoes (provided by the NYU insectary) as previously described by Meister et al. (Science, 2011). Purified sporozoites (spz) were stored at 250 spz/uL in chilled PBS supplemented with 3% BSA. 3 uL of Pb-luc spz solution was dispensed to each assay well using a Bottlevalve equipped with a custom, single-tip dispense head (GNF Systems). Assay plates were centrifuged at 330×g for 3 minutes to pellet the spz, then the assay plates were returned to the 37° C. incubator for 48 h. Luciferase signal, which corresponds with parasite proliferation, was detected by adding 2 uL of BrightGlo (Promega) to each well using the MicroFlo (Biotek; 1 ul cassette). Luminescence was immediately measured on an Envision MultiLabel Plate Reader (PerkinElmer).

[4] = read-out: EC50, P. yoelii Sporozoite Invasion Assay
[5] = read-out: EC50, P. falciparum Proliferation Assay
[6] = values without * in Table 2, HepG2-A16-CD81EGFP liver cells, 48 hours, immunofluorescence, read-out: EC50 (nM), P. yoelii Sporozoite Invasion Assay
[7] = Erythrocyte, infected human erythrocytes, 72 hours, SYBR Green fluorescence, read-out: EC50 (nM), inhibitory efficacy in delaying P. falciparum proliferation in infected human blood cells

Compound | EC50 [1, 4] [nM] | EC50 [2, 5] [nM] | EC50 [1, 6] [nM] | EC50 [2, 7] [nM] | EC50 [3] [nM]
CN(C(=O)c1ccn2ncc(-c3ccc(C(F)(F)F)cc3)c2c1)c1ccc(C#N)cc1 [Example 1, N-(4-cyanophenyl)-N-methyl-3-(4-(trifluoromethyl)phenyl)pyrazolo[1,5-a]pyridine-5-carboxamide] | < 10 |  |  |  | 
CN(C(=O)c1ccn2ncc(-c3ccc(C(N)=O)cc3)c2c1)c1ccc(C#N)cc1 [Example 19, 3-(4-carbamoylphenyl)-N-(4-cyanophenyl)-N-methylpyrazolo[1,5-a]pyridine-5-carboxamide] | < 10 |  |  |  | 
CN(C(=O)c1ccn2ncc(-c3ccc(C(N)=O)cc3)c2c1)c1ccc(C#N)cn1 [Example 32, 3-(4-carbamoylphenyl)-N-(5-cyanopyridin-2-yl)-N-methylpyrazolo[1,5-a]pyridine-5-carboxamide] | < 10 | < 5 |  |  | 
CNC(=O)c1ccc(-c2cnn3ccc(C(=O)N(C)c4ccc(C#N)cn4)cc23)cc1 [Example 75, N-(5-cyanopyridin-2-yl)-N-methyl-3-(4-(methylcarbamoyl)phenyl)pyrazolo[1,5-a]pyridine-5-carboxamide] | < 10 | < 5 |  |  | 
CCN(C(=O)c1ccn2ncc(-c3ccc(C(=O)NC)cc3)c2c1)c1ccc(C#N)cn1 [Example 90, N-(5-Cyanopyridin-2-yl)-N-ethyl-3-(4-(methylcarbamoyl)phenyl)pyrazolo[1,5-a]pyridine-5-carboxamide] |  |  | 39 | 8 | 
CNC(=O)c1ccc(-c2cnn3ccc(C(=O)N(c4ccc(C#N)cn4)C(C)C)cc23)cc1 [Example 91, N-(5-cyanopyridin-2-yl)-N-isopropyl-3-(4-(methylcarbamoyl)phenyl)pyrazolo[1,5-a]pyridine-5-carboxamide] |  |  | 23 | 13 | 
CNC(=O)c1ccc(-c2cnn3ccc(C(=O)N(c4ccc(C#N)cn4)C4CC4)cc23)cc1 [Example 93, N-(5-Cyanopyridin-2-yl)-N-cyclopropyl-3-(4-(methylcarbamoyl)phenyl)pyrazolo[1,5-a]pyridine-5-carboxamide] |  |  | 10 | 6 | 
CNC(=O)c1ccc(-c2cnn3ccc(C(=O)N(C)c4ccc(C#N)cc4)cc23)cn1 [Example 97, N-(4-Cyanophenyl)-N-methyl-3-(6-(methylcarbamoyl)pyridin-3-yl)pyrazolo[1,5-a]pyridine-5-carboxamide] |  |  | 92 | 13 | 
CN(C(=O)c1ccn2ncc(-c3cnc(Cl)c(N)c3)c2c1)c1ccc(C#N)cn1 [Example 98, 3-(5-Amino-6-chloropyridin-3-yl)-N-(5-cyanopyridin-2-yl)-N-methylpyrazolo[1,5-a]pyridine-5-carboxamide] |  |  | 2060 | 19 | 
CNC(=O)c1ccc(-c2cnn3ccc(C(=O)N(C)c4ccc(Cl)cc4)cc23)cc1 [Example 99, N-(4-Chlorophenyl)-N-methyl-3-(4-(methylcarbamoyl)phenyl)pyrazolo[1,5-a]pyridine-5-carboxamide] |  |  | 15 | 1 | 
CN(C(=O)c1ccn2ncc(-c3ccc(C(N)=O)cc3)c2c1)c1ccc(Cl)cc1 [Example 100, 3-(4-Carbamoylphenyl)-N-(4-chlorophenyl)-N-methylpyrazolo[1,5-a]pyridine-5-carboxamide] |  |  | 20 | 9 | 
CCN(C(=O)c1ccn2ncc(-c3ccc(C(=O)NC)nc3)c2c1)c1ccc(F)cn1 [Example 159, N-ethyl-N-(5-fluoropyridin-2-yl)-3-(6-(methylcarbamoyl)pyridin-3-yl)pyrazolo[1,5-a]pyridine-5-carboxamide] |  |  |  | 56 | 43
CNC(=O)c1ccc(-c2cnn3ccc(C(=O)N(c4ccc(C(F)(F)F)cn4)C4CCC4)cc23)cc1 [Example 160, N-cyclobutyl-3-(4-(methylcarbamoyl)phenyl)-N-(5-(trifluoromethyl)pyridin-2-yl)pyrazolo[1,5-a]pyridine-5-carboxamide] |  |  |  | 4 | 4
CNC(=O)c1ccc(-c2cnn3ccc(C(=O)N(c4ccc(C(F)(F)F)cn4)C4CCC4)cc23)cn1 [Example 161, N N-cyclobutyl-3-(6-(methylcarbamoyl)pyridin-3-yl)-N-(5-(trifluoromethyl)pyridin-2-yl)pyrazolo[1,5-a]pyridine-5-carboxamide] |  |  |  | 68 | 41
CCN(C(=O)c1ccn2ncc(-c3ccc(C(=O)NC)cc3)c2c1)c1ccc(C#N)c(OCCO)n1 [Example 162, N-(5-cyano-6-(2-hydroxyethoxyl)pyridin-2-yl)-N-ethyl-3-(4-(methylcarbamoyl)phenyl)pyrazolo[1,5-a]pyridine-5-carboxamide] |  |  |  | 9 | 8
CNC(=O)c1ccc(-c2cnn3ccc(S(=O)(=O)N(C)c4ccc(C#N)cn4)cc23)cc1 [Example 163, 4-(5-(N-(5-Cyanopyridin-2-yl)-N-methylsulfamoyl)pyrazolo[1,5-a]pyridin-3-yl)-N-methyl benzamide] |  |  |  | 4 | 2
